From patent publication US20220380370A1 (Goldfinch Bio, Inc., priority 2019, published 2022)

Biological target: T1, CB1 receptor (Homo sapiens, UniProt P21554)
T1 construct: Perkin Elmer (CB1-CHO cells); host or cells: Flp-In CHO cells or CB1-CHO cells, stably expressing
Assay: CB1 cAMP antagonist assay (LANCE Ultra cAMP kit)
Format: cell-based
Settings: CHO cells stably expressing the CB1 receptor; forskolin and agonist CP55940 at EC90
Description: LANCE Ultra cAMP kit (Perkin Elmer) was used to quantitate the amount of 3′,5′-cyclic adenosine monophosphate (cAMP) produced in Flp-In CHO cells (Invitrogen) stably expressing the CB1 receptor, CB1-CHO cells (Perkin Elmer) stably expressing the CB1 receptor, or CB2-CHO cells (Perkin Elmer) stably expressing the CB2 receptor.
Forskolin was initially titrated to determine the response of the cells. The EC90 of forskolin was used for compound testing. CP55940 was titrated and used with EC90 of forskolin to determine the level of agonist stimulation. EC90 of the agonist was used for subsequent compound testing. For the CB1 assay, Forskolin (Sigma), CP55940 (Cayman Chemicals), and AM251 (MCE) were diluted in 100% DMSO, starting at 100 mM, 1 mM, and 1 mM respectively, in 3-fold serial dilutions. For the CB2 assay, Forskolin (Sigma), CP55940 (Cayman Chemicals), and AM630 (MCE) were diluted in 100% DMSO, starting at 100 mM, 1 mM, and 30 mM respectively, in 3-fold serial dilutions. Test compounds were diluted in 100% DMSO starting from 10 mM, 3-fold dilutions. The cAMP assay buffer contains 1× Hank's Buffered Saline Solution with Ca^2+ and Mg^2+ (Invitrogen), 5.3 mM HEPES (Invitrogen), 0.05% BSA, 0.5 mM IBMX (Sigma). For all assays, cells were harvested, counted, and diluted in cAMP assay buffer to 1×10^5 cells/mL. Only cells with viability >85% were used for the assay. Cells were seeded at 1000 cells/well in 384-well plates and 10 nL/well AM251 (for CB1), AM630 (for CB2) or test compound was added and incubated at 37° C. for 10 min. Then forskolin and agonist were added to reach their EC90 and incubated at 25° C. for 30 min. To detect the amount of cAMP produced, 5 μL of a 100× diluted stock of Eu-cAMP tracer and 5 μL of 200× diluted stock of Ulight-anti-cAMP were added to each well, and the plate incubated at 25° C. for 15 min. The FRET signal was read using an EnVision microplate reader (λex=320 nm, λem=615 nm and 665 nm). The results are expressed as % Inhibition, where % inhibition=100−100×(U−C2)/(C1−C2), where U is the FRET ratio (λem (665 nm)/λem (615 nm)) of sample, C1 is the average of the high controls (signal with no antagonist added), and C2 is the average of low controls (signal with the highest concentration of AM251 or AM630 antagonist). The IC50 is determined by fitting the percentage of inhibition as a function of compound concentrations with the Hill equation, using a 4-parameter fit in either XLfit or GraphPad Prism.

T1 sequence (P21554 whole entry): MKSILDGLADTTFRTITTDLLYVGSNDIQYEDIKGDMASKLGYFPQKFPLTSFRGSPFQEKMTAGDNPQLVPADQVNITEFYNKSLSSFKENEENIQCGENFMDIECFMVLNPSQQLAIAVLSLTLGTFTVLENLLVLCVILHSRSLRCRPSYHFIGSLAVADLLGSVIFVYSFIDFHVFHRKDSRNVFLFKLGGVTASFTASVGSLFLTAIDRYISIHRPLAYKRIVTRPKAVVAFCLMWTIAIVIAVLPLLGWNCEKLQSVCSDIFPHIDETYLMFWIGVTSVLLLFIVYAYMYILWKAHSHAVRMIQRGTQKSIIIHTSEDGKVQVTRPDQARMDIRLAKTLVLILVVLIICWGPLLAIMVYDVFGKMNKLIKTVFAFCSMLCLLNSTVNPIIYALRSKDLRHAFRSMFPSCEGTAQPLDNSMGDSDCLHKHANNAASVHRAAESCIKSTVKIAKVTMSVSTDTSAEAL

| SMILES | IC50 |
| --- | --- |
| CC(=O)N1CCC(Cn2c(=O)n(C[C@@H](O)CO)c(=O)c3c2nc(-c2ccccc2Cl)n3-c2ccc(Cl)cc2)CC1 [Compound 130, (R)-3-[(1-acetylpiperidin-4-yl)methyl]-8-(2-chlorophenyl)-7-(4-chlorophenyl)-1-[2,3-dihydroxypropyl]purine-2,6-dione] | 100 to 1000 nM |
| NC(=O)Cn1c(=O)c2c(nc(-c3ccccc3Cl)n2-c2ccc(Cl)cc2)n(C2CCOCC2)c1=O [Compound 133] | < 100 nM |
| C[C@H](C(N)=O)n1c(=O)c2c(nc(-c3ccccc3Cl)n2-c2ccc(Cl)cc2)n(C2CCOCC2)c1=O [Compound 137] | 100 to 1000 nM |
| C[C@@H](C(N)=O)n1c(=O)c2c(nc(-c3ccccc3Cl)n2-c2ccc(Cl)cc2)n(CC2CCOCC2)c1=O [Compound 139] | < 100 nM |
| NC(=O)Cn1c(=O)c2c(nc(-c3ccccc3Cl)n2-c2ccc(Cl)cc2)n(Cc2ccc([C@H]3COCCO3)cc2)c1=O [Compound 141, 2-[8-(2-chlorophenyl)-7-(4-chlorophenyl)-3-([4-[(2S)-1,4-dioxan-2-yl]phenyl]methyl)-2,6-dioxopurin-1-yl]acetamide] | < 100 nM |
| NC(=O)Cn1c(=O)c2c(nc(-c3ccccc3Cl)n2-c2ccc(Cl)cc2)n(Cc2ccc(CC3COCCO3)cc2)c1=O (stereo not drawn) [Compound 143] | < 100 nM |
| NC(=O)Cn1c(=O)c2c(nc(-c3ccccc3Cl)n2-c2ccc(Cl)cc2)n(Cc2ccc([C@@H]3COCCO3)cc2)c1=O [Compound 145, 2-[8-(2-chlorophenyl)-7-(4-chlorophenyl)-3-([4-[(2R)-1,4-dioxan-2-yl]phenyl]methyl)-2,6-dioxopurin-1-yl]acetamide] | < 100 nM |
| Cn1c(=O)[nH]c2nc(-c3ccccc3Cl)n(-c3ccc(Cl)cc3)c2c1=O [Compound 147, 8-(2-chlorophenyl)-7-(4-chlorophenyl)-1-methyl-3H-purine-2,6-dione] | 1000 to 5000 nM |
| Cn1c(=O)c2c(nc(-c3ccccc3Cl)n2-c2ccc(Cl)nc2)n(C2CCCCC2)c1=O [Compound 149, 8-(2-chlorophenyl)-7-(6-chloropyridin-3-yl)-3-cyclohexyl-1-methylpurine-2,6-dione] | < 100 nM |
| C[C@@H](c1ccc(C(N)=O)cc1)n1c(=O)n(C[C@@H](O)CO)c(=O)c2c1nc(-c1ccccc1Cl)n2-c1ccc(Cl)cc1 [Compound 151] | 100 to 1000 nM |
| Cn1c(=O)c2c(nc(-c3cccnc3Cl)n2-c2ccc(Cl)cc2)n(C2CCCCC2)c1=O [Compound 152, 7-(4-chlorophenyl)-8-(2-chloropyridin-3-yl)-3-cyclohexyl-1-methylpurine-2,6-dione] | < 100 nM |
| NC(=O)Cn1c(=O)c2c(nc(-c3ccccc3Cl)n2-c2ccc(Cl)cc2)n(Cc2ccc(S(N)(=O)=O)cc2)c1=O [Compound 153] | < 100 nM |
| CS(=O)(=O)c1ccc(Cn2c(=O)n(CC(N)=O)c(=O)c3c2nc(-c2ccccc2Cl)n3-c2ccc(Cl)cc2)nc1 [Compound 154] | < 100 nM |
| CS(=O)(=O)c1ccc(Cn2c(=O)n(CC(N)=O)c(=O)c3c2nc(-c2ccccc2Cl)n3-c2ccc(Cl)cc2)cc1 [Compound 155, 2-[8-(2-chlorophenyl)-7-(4-chlorophenyl)-3-[(4-methanesulfonylphenyl)methyl]-2,6-dioxopurin-1-yl]acetamide] | < 100 nM |
| CS(=N)(=O)c1ccc(Cn2c(=O)n(CC(N)=O)c(=O)c3c2nc(-c2ccccc2Cl)n3-c2ccc(Cl)cc2)cc1 (stereo not drawn) [Compound 156, 2-[8-(2-chlorophenyl)-7-(4-chlorophenyl)-3-([4-[imino(methyl)oxo-lambda6-sulfanyl]phenyl]methyl)-2,6-dioxopurin-1-yl]acetamide] | < 100 nM |
| NC(=O)Cn1c(=O)c2c(nc(-c3ccccc3Cl)n2-c2ccc(Cl)cc2)n(CC2(F)CCOCC2)c1=O [Compound 157] | < 100 nM |
| CS(=O)(=O)N1CCC(Cn2c(=O)n(CC(N)=O)c(=O)c3c2nc(-c2ccccc2Cl)n3-c2ccc(Cl)cc2)CC1 [Compound 158] | < 100 nM |

| SMILES | IC50 |
| --- | --- |
| C[C@@H](CO)NC(=O)c1ccc(Cn2c(=O)n(C)c(=O)c3c2nc(-c2ccccc2Cl)n3-c2ccc(Cl)cc2)nc1 [Compound 160] | < 100 nM |
| C[C@H](CO)NC(=O)c1ccc(Cn2c(=O)n(C)c(=O)c3c2nc(-c2ccccc2Cl)n3-c2ccc(Cl)cc2)nc1 [Compound 161] | < 100 nM |
| Cn1c(=O)c2c(nc(-c3ccccc3Cl)n2-c2ccc(Cl)cc2)n(Cc2ccc(C(=O)NCC3(O)CC3)cn2)c1=O [Compound 162] | < 100 nM |
| NC(=O)Cn1c(=O)c2c(nc(-c3ncccc3Cl)n2-c2ccc(Cl)cc2)n(CC2CCS(=O)(=O)CC2)c1=O [Compound 163, 2-[7-(4-chlorophenyl)-8-(3-chloropyridin-2-yl)-3-[(1,1-dioxo-1λ^6-thian-4-yl)methyl]-2,6-dioxopurin-1-yl]acetamide] | 1000 to 5000 nM |
| Cn1c(=O)c2c(nc(-c3ccccc3Cl)n2-c2ccc(Cl)cc2)n(Cc2ccc(C(=O)NCC(C)(C)O)cn2)c1=O [Compound 166] | < 100 nM |
| Cn1c(=O)c2c(nc(-c3ccccc3Cl)n2-c2ccc(Cl)cc2)n(Cc2ccc(C(=O)NC3CCOC3)cn2)c1=O (stereo not drawn) [Compound 167] | < 100 nM |
| NC(=O)Cn1c(=O)c2c(nc(-c3ccccc3Cl)n2-c2ccc(Cl)cc2)n(CC2(O)CCOCC2)c1=O [Compound 168, 2-[8-(2-chlorophenyl)-7-(4-chlorophenyl)-3-[(4-hydroxyoxan-4-yl)methyl]-2,6-dioxopurin-1-yl]acetamide] | < 100 nM |
| NS(=O)(=O)Cn1c(=O)c2c(nc(-c3ccccc3Cl)n2-c2ccc(Cl)cc2)n(Cc2ccc(Cl)cn2)c1=O [Compound 169, [8-(2-chlorophenyl)-7-(4-chlorophenyl)-3-[(5-chloropyridin-2-yl)methyl]-2,6-dioxopurin-1-yl]methanesulfonamide] | < 100 nM |
| NC(=O)Cn1c(=O)c2c(nc(-c3ccc(F)cc3F)n2-c2ccc(Cl)cc2)n(CC2CCS(=O)(=O)CC2)c1=O [Compound 172, 2-[7-(4-chlorophenyl)-8-(2,4-difluorophenyl)-3-[(1,1-dioxo-1λ^6-thian-4-yl)methyl]-2,6-dioxopurin-1-yl]acetamide] | 100 to 1000 nM |
| NC(=O)Cn1c(=O)c2c(nc(-c3ccc(F)cc3Cl)n2-c2ccc(Cl)cc2)n(CC2CCS(=O)(=O)CC2)c1=O [Compound 173] | < 100 nM |
| C[C@@H](Cn1c(=O)c2c(nc(-c3ccccc3Cl)n2-c2ccc(Cl)cc2)n(CC2CCS(=O)(=O)CC2)c1=O)C(N)=O [Compound 174, (2S)-3-[8-(2-chlorophenyl)-7-(4-chlorophenyl)-3-[(1,1-dioxo-1λ^6-thian-4-yl)methyl]-2,6-dioxopurin-1-yl]-2-methylpropanamide] | < 100 nM |
| C[C@H](Cn1c(=O)c2c(nc(-c3ccccc3Cl)n2-c2ccc(Cl)cc2)n(CC2CCS(=O)(=O)CC2)c1=O)C(N)=O [Compound 175] | < 100 nM |
| C[C@@H](c1ccc(S(N)(=O)=O)cn1)n1c(=O)n(C)c(=O)c2c1nc(-c1ccccc1Cl)n2-c1ccc(Cl)cc1 [Compound 179, 6-[(1S)-1-[8-(2-chlorophenyl)-7-(4-chlorophenyl)-1-methyl-2,6-dioxopurin-3-yl]ethyl]pyridine-3-sulfonamide] | < 100 nM |
| C[C@H](c1ccc(S(N)(=O)=O)cn1)n1c(=O)n(C)c(=O)c2c1nc(-c1ccccc1Cl)n2-c1ccc(Cl)cc1 [Compound 180, 6-[(1R)-1-[8-(2-chlorophenyl)-7-(4-chlorophenyl)-1-methyl-2,6-dioxopurin-3-yl]ethyl]pyridine-3-sulfonamide] | < 100 nM |
| Cn1nccc1-c1nc2c(c(=O)n(C)c(=O)n2Cc2ccc(S(N)(=O)=O)cc2)n1-c1ccc(Cl)cc1 [Compound 181] | < 100 nM |
| Cn1nccc1-c1nc2c(c(=O)n(C)c(=O)n2Cc2ccc(S(N)(=O)=O)cn2)n1-c1ccc(Cl)cc1 [Compound 182, 6-[[7-(4-chlorophenyl)-1-methyl-8-(2-methylpyrazol-3-yl)-2,6-dioxopurin-3-yl]methyl]pyridine-3-sulfonamide] | 100 to 1000 nM |
